Measurements as given in publication PMC10819243 (Pharmaceutics, 2024).
Like-named read-outs stand apart in the source and are kept apart here.

What was measured:
[1] = tested on: KB; details: most active derivatives published earlier; read-out: Cell Line, IC50 [ μM] KB; cited from earlier work
[2] = tested on: HeLa; details: most active derivatives published earlier; read-out: Cell Line, IC50 [ μM] HeLa; cited from earlier work
[3] = tested on: MCF-7; details: most active derivatives published earlier; read-out: Cell Line, IC50 [ μM] MCF-7; cited from earlier work
[4] = tested on: MCF-7; test: MTT assay, MCF-7; format: cell-based; details: for IC50: Homo sapiens, MCF7, MTT assay, MCF-7 breast carcinoma, (±s) standard deviation; for Selectivity Index MCF-7: IC50 for normal cell line (HDF)/IC50 for MCF-7
[5] = tested on: HeLa; test: MTT assay, HeLa; format: cell-based; details: for IC50: Homo sapiens, MTT assay, HeLa cervix carcinoma, (±s) standard deviation; for Selectivity Index HeLa: IC50 for normal cell line (HDF)/IC50 for HeLa
[6] = tested on: U-87MG, MCF-7, and HeLa cancer cell lines; test: Apoptosis assay, all cancer cell lines; format: cell-based
From the text: (§1) The necrosis process induced by all the tested compounds was very small.

[7] = tested on: HDF (normal fibroblast cell line); test: MTT assay, HDF; format: cell-based, human; details: for IC50: MTT assay, HDF normal fibroblast cell line, (±s) standard deviation
[8] = tested on: HeLa, KB, MCF-7, A-549 and HDF cell lines; test: MTT assay, statements over several tested cell lines; format: cell-based
[9] = tested on: KB; test: MTT assay, KB; format: cell-based; details: for IC50: Homo sapiens, MTT assay, KB nasopharynx carcinoma, (±s) standard deviation; for Selectivity Index KB: IC50 for normal cell line (HDF)/IC50 for KB
[10] = tested on: A-549; test: MTT assay, A-549; format: cell-based; details: for IC50: Homo sapiens, A549, MTT assay, A-549 lung carcinoma, (±s) standard deviation; for Selectivity Index A-549: IC50 for normal cell line (HDF)/IC50 for A-549
[11] = tested on: U-87MG cells; test: Apoptosis assay (DNA fragmentation), U-87MG; format: cell-based
From the text: as §1

[12] = summary over the tested cell lines, read-out: IC50 values for the tested cell lines (range or summary)
[13] = ratio of IC50 values vs oleanolic acid (1)

SMILES | IC50 [1] | IC50 [2] | IC50 [3] | IC50 [4] | Selectivity Index MCF-7 [4] | IC50 [5] | Selectivity Index HeLa [5] | IC50 ([7]; Homo sapiens, Fibroblast) | IC50 [8, 12] | IC50 [9] | Selectivity Index KB [9] | IC50 [10] | Selectivity Index A-549 [10] | also measured
COC(=O)C12CCC(C)(C)CC1C1C(=NOC(=O)c3ccccc3[N+](=O)[O-])CC3C4(C)CCC(OC(C)=O)C(C)(C)C4CCC3(C)C1(C)CC2 (stereo not drawn) [8e [22]] | > 10 µM | 9.84 µM | 9.28 µM | – | – | – | – | – | – | – | – | – | – | –
COC(=O)C12CCC(C)(C)CC1C1C(=NOC(=O)CCl)CC3C4(C)CCC(OC(C)=O)C(C)(C)C4CCC3(C)C1(C)CC2 (stereo not drawn) [8b [22]] | 9.42 µM | 9.19 µM | 7.26 µM | – | – | – | – | – | – | – | – | – | – | –
COC(=O)C12CCC(C)(C)CC1C1C(=NOC(=O)CBr)CC3C4(C)CCC(OC(C)=O)C(C)(C)C4CCC3(C)C1(C)CC2 (stereo not drawn) [8c [22]] | 4.9 µM | 4.41 µM | 3.76 µM | – | – | – | – | – | – | – | – | – | – | –
COC(=O)[C@]12CCC(C)(C)CC1C1=CC(=O)C3[C@@]4(C)CC/C(=N\OC(=O)c5cc([N+](=O)[O-])cc([N+](=O)[O-])c5)C(C)(C)C4CC[C@@]3(C)[C@]1(C)CC2 (stereo partly drawn) [Compound 6g, 3-(3′,5′-Dinitro)benzoxyimino-11-oxoolean-12-en-28-oic acid methyl ester] | – | – | – | 6.62 µM | 1.10 | 6.11 µM | 1.19 | 7.27 µM | 5.39 to 8.98 µM | 8.98 µM | 0.81 | 5.39 µM | 1.34 | increase in induction of apoptosis ([6]; 0.1 µg/mL): 1.7 fold; increase in induction of apoptosis ([6]; 1.0 µg/mL): 2.4 fold; increase in induction of apoptosis ([6]; 10 µg/mL): 2.9 fold
CC1(C)CCC2(C(=O)N3CCOCC3)CCC3(C)C(=CCC4C5(C)CCC(=NO)C(C)(C)C5CCC43C)C2C1 (stereo not drawn) [Compound 4] | 1.74 µM | 1.8 µM | 1.6 µM | 7.42 µM | 1.88 | 8.72 µM | 1.60 | 13.9 µM | 7 to 8 µM | 8.72 µM | 1.60 | 7.29 µM | 1.91 | –
COC(=O)[C@]12CCC(C)(C)CC1C1=CCC3[C@@]4(C)CC/C(=N\OC(=O)c5cc([N+](=O)[O-])cc([N+](=O)[O-])c5)C(C)(C)C4CC[C@@]3(C)[C@]1(C)CC2 (stereo partly drawn) [Compound 5g, 3-(3′,5′-Dinitro)benzoxyiminoolean-12-en-28-oic acid methyl ester] | – | – | – | 5.18 µM | 1.20 | 4.19 µM | 1.48 | 6.22 µM | 4.19 to 8.98 µM | 4.61 µM | 1.35 | 4.82 µM | 1.29 | fold as active as OA (1), MCF-7 [4, 13]: ~3 fold; fold as active as OA (1), HeLa [5, 13]: ~3 fold; fold as active as OA (1), HDF ([7]; ratio of IC50 values vs oleanolic acid (1), normal cell line): ~3 fold; increase in DNA fragmentation ([11]; 0.1 µg/mL): 2.5 fold; increase in DNA fragmentation ([11]; 1.0 µg/mL): 4.2 fold; fold as active as OA (1), KB [9, 13]: 3.2 fold; fold as active as OA (1), A-549 [10, 13]: ~2 fold
COC(=O)C12CCC(C)(C)CC1C1=CC(=O)C3C4(C)CCC(=NO)C(C)(C)C4CCC3(C)C1(C)CC2 (stereo not drawn) [Compound 3] | 6.19 µM | 5.03 µM | > 10 µM | 48.4 µM | 1.26 | 125 µM | 0.49 | 61 µM | – | 60.3 µM | 1.01 | 63 µM | 0.97 | –
CCC(=O)ON=C1C[C@@H]2[C@@]3(C)CC[C@H](OC(C)=O)C(C)(C)[C@@H]3CC[C@@]2(C)[C@]2(C)CC[C@@]3(C(=O)OC)CCC(C)(C)C[C@H]3[C@@H]12 [8d [22]] | 0.72 µM | 1.87 µM | 2.13 µM | – | – | – | – | – | – | – | – | – | – | –
COC(=O)[C@]12CCC(C)(C)CC1C1=CCC3[C@@]4(C)CC/C(=N\OC(=O)c5ccccc5)C(C)(C)C4CC[C@@]3(C)[C@]1(C)CC2 (stereo partly drawn) [Compound 5d, 3-Benzoxyiminoolean-12-en-28-oic acid methyl ester] | – | – | – | 83.3 µM | 1.36 | 84.9 µM | 1.33 | 113 µM | 73.9 to 113 µM | 83.2 µM | 1.36 | 73.9 µM | 1.53 | –
CC1(C)CC[C@]2(C(=O)N3CCOCC3)CC[C@]3(C)C(=CCC4[C@@]5(C)CC/C(=N\OC(=O)c6cccc([N+](=O)[O-])c6)C(C)(C)C5CC[C@]43C)C2C1 (stereo partly drawn) [Compound 7e, 3-(3′-Nitro)benzoxyiminoolean-12-en-28-oic acid morpholide] | – | – | – | 10.2 µM | 2.75 | 12.1 µM | 2.32 | 28 µM | – | 13.9 µM | 2.02 | 13.8 µM | 2.03 | IC50 values for the tested cell lines (range or summary) ([8]; summary over the tested cell lines): comparable to those of OA (1)
COC(=O)[C@]12CCC(C)(C)CC1C1=CC(=O)C3[C@@]4(C)CC/C(=N\OC(C)=O)C(C)(C)C4CC[C@@]3(C)[C@]1(C)CC2 (stereo partly drawn) [Compound 6a, 3-Acetoxyimino-11-oxoolean-12-en-28-oic acid methyl ester] | – | – | – | 28 µM | 1.75 | 27.4 µM | 1.79 | ~49 µM | – | 27.9 µM | 1.76 | 28.2 µM | 1.74 | IC50 [7]: 49.1 µM; IC50 ([8]; one approximate value or range for the four cancer cell lines, apart from HDF, read-out: IC50 for HeLa, KB, MCF-7, and A-549 cancer cell lines): ~28 µM
CC1(C)CC[C@]2(C(=O)N3CCOCC3)CC[C@]3(C)C(=CCC4[C@@]5(C)CC/C(=N\OC(=O)c6ccccc6)C(C)(C)C5CC[C@]43C)C2C1 (stereo partly drawn) [Compound 7d, 3-Benzoxyiminoolean-12-en-28-oic acid morpholide] | – | – | – | 41.7 µM | 1.58 | 45.3 µM | 1.46 | 66.2 µM | 40 to 66 µM | 45.9 µM | 1.44 | 46.8 µM | 1.41 | –
COC(=O)[C@]12CCC(C)(C)CC1C1=CCC3[C@@]4(C)CC/C(=N\OC(=O)c5cccc([N+](=O)[O-])c5)C(C)(C)C4CC[C@@]3(C)[C@]1(C)CC2 (stereo partly drawn) [Compound 5e] | – | – | – | 21.8 µM | 1.74 | 20.1 µM | 1.88 | 38 µM | 20.1 to 38 µM | 23.9 µM | 1.59 | 21.1 µM | 1.80 | –
CC1(C)CC[C@]2(C(=O)N3CCOCC3)CC[C@]3(C)C(=CCC4[C@@]5(C)CC/C(=N\OC(=O)c6cc([N+](=O)[O-])cc([N+](=O)[O-])c6)C(C)(C)C5CC[C@]43C)C2C1 (stereo partly drawn) [Compound 7g, 3-(3′,5′-Dinitro)benzoxyiminoolean-12-en-28-oic acid morpholide] | – | – | – | 7.27 µM | 1.26 | 6.24 µM | 1.47 | 9.16 µM | 4.19 to 8.98 µM | 6.01 µM | 1.52 | 6.52 µM | 1.40 | increase in induction of apoptosis ([6]; 0.1 µg/mL): 2.3 fold; increase in induction of apoptosis ([6]; 1.0 µg/mL): 2.6 fold; increase in induction of apoptosis ([6]; 10 µg/mL): 3.8 fold
CCC(=O)O/N=C1\CC[C@@]2(C)C(CC[C@]3(C)C2CC=C2C4CC(C)(C)CC[C@]4(C(=O)N4CCOCC4)CC[C@]23C)C1(C)C (stereo partly drawn) [Compound 7c, 3-Propionoxyimino-olean-12-en-28-oic acid morpholide] | – | – | – | 153 µM | 1.17 | 143 µM | 1.27 | 179 µM | 140 to 180 µM | 150 µM | 1.20 | 148 µM | 1.21 | –
